According to PMC5845004, “Novel (p)ppGpp Binding and Metabolizing Proteins of Escherichia coli” (mBio, 2018):
“Also recorded” adds a separate entry of the source. Like-named read-outs stand apart in the source and are kept apart here.

Assays:
Gpt = Gpt (Escherichia coli, UniProt P0A9M5); test: DRaCALA competition assay, Gpt; assay type: binding, E. coli; conditions: 20 µM Gpt, 2 nM hot ppGpp, 100 µM cold competitor
Protocol: The mixtures were incubated for 5 min at RT before spotting of 2 µl of the reaction mixtures onto nitrocellulose membranes. […] For competition assays, purified proteins at the specified concentrations were incubated with 2 nM [α-^32P]ppGpp or [α-^32P]pppGpp in the presence of 100 μM competitor nucleotides in binding buffer B. The reaction mixtures were incubated for 5 min at RT, 2 µl was spotted onto nitrocellulose membranes, and the values corresponding to the bound fractions were determined.

PurA [1] = target: T1, PurA (Escherichia coli, UniProt P0A7D4); conditions: cited from earlier work
Apt [2] = target: T2, Apt (Escherichia coli, UniProt P69503); conditions: ref Table S1 (2); cited from earlier work
NadR = NadR (Escherichia coli, UniProt P27278); test: In vitro cleavage assay (TLC), NadR; assay type: biochemical, E. coli; conditions: 10-20 µM NadR, buffer B with 100 mM NaCl, 10 min
Protocol: The purified His6-MutT and His6-NudG proteins were tested for their relative levels of cleavage of ppGpp compared to those seen with their native substrates. For this, a 1 μM concentration of each protein and a 10 nM concentration of [α-^32P]ppGpp were used together with 100 μM concentrations of cold competitors [ppGpp, GTP, ATP, 8-oxo-(d)GTP, 2-hydroxyl-(d)ATP] or 50 mM EDTA in buffer B. The samples were incubated at 30°C for 10 min and for 1 h before the reactions were stopped by adding 50 mM EDTA. The cleavage products were resolved by TLC as described above. The purified His6-NadR and His6-TrmE proteins were tested for their cleavage of both GTP and ppGpp. […]
(§1) A 20 μM concentration of each of purified proteins MutT, NudG, NadR, TrmE, and MBP (as a negative control) was incubated with 100 μM ppGpp in buffer B (containing 40 mM Tris [pH 7.5], 100 mM NaCl, and 10 mM MgCl2) for 20 min at room temperature. Samples were snap-frozen on dry ice and analyzed with UPLC-MS afterward. […] The detection conditions were as follows: photodiode array detector (PDA), […] (evaluated at 260 nm); MS, ionization; electrospray ionization (ESI+), scan, 200 to 800 m/z with lock mass correction. […]

Hpt = Hpt (Escherichia coli, UniProt P0A9M2); test: DRaCALA competition assay, Hpt; assay type: binding, E. coli; conditions: 20 µM Hpt, 2 nM hot ppGpp, 100 µM cold competitor
Protocol: (§5) For Kd measurements by DRaCALA, 2-fold serial dilutions from the highest possible concentrations of each purified protein were prepared in binding buffer B, and approximately 2 nM concentrations of α-^32P-labeled ppGpp, pppGpp, GTP, and GDP were added. The mixtures were incubated for 5 min at RT before spotting of 2 µl of the reaction mixtures onto nitrocellulose membranes. The fractions of bound ligand and the apparent Kd values were calculated as previously described ([37]). For competition assays, purified proteins at the specified concentrations were incubated with 2 nM [α-^32P]ppGpp or [α-^32P]pppGpp in the presence of 100 μM competitor nucleotides in binding buffer B. The reaction mixtures were incubated for 5 min at RT, 2 µl was spotted onto nitrocellulose membranes, and the values corresponding to the bound fractions were determined. EDTA was added at excess concentrations as specified for each case.

PurA [3] = target: T1, PurA; test: DRaCALA binding, purified PurA; parameters: species or system E. coli; conditions: PurA up to 150 µM
Protocol: as §5

TrmE = TrmE (Escherichia coli, UniProt P25522); test: In vitro cleavage assay (TLC), TrmE; assay type: biochemical, E. coli; conditions: 10 µM TrmE, buffer B, with 100 mM potassium where stated, 10 min
Protocol: (§2) The purified His6-MutT and His6-NudG proteins were tested for their relative levels of cleavage of ppGpp compared to those seen with their native substrates. For this, a 1 μM concentration of each protein and a 10 nM concentration of [α-^32P]ppGpp were used together with 100 μM concentrations of cold competitors [ppGpp, GTP, ATP, 8-oxo-(d)GTP, 2-hydroxyl-(d)ATP] or 50 mM EDTA in buffer B. The samples were incubated at 30°C for 10 min and for 1 h before the reactions were stopped by adding 50 mM EDTA. The cleavage products were resolved by TLC as described above. The purified His6-NadR and His6-TrmE proteins were tested for their cleavage of both GTP and ppGpp. For cleavage of GTP, 10 μM concentrations of His6-MBP, His6-TrmE, and 20 μM His6-NadR proteins were used with 2 nM [α-^32P]GTP and 100 μM cold GTP in buffer B. For cleavage of ppGpp, 10 μM concentrations of His6-TrmE, His6-MBP, and His6-NadR proteins were used with 10 nM [α-^32P]ppGpp in buffer B. Of note, for His6-TrmE, another reaction was also performed in buffer B supplemented with 100 mM KCl. The reactions were performed at RT for 10 min and were stopped by adding 17% formic acid. The cleavage products were resolved by TLC as described above.
as §1, with “afterward. All samples and buffers were stored at −80°C, thawed on ice, and kept at 4°C during analysis. For the analysis, a UPLC-quadrupole time of flight (UPLC-qTOF) method (Waters) was used.” for “afterward.”

RelA = system: RelA; parameters: method as in ref 36 (Table S1 ref 16); conditions: ref 36 (Table S1 ref 16); cited from earlier work
MutT = MutT (Escherichia coli, UniProt P08337); test: In vitro cleavage assay (TLC), MutT; assay type: biochemical, E. coli; conditions: purified MutT, buffer B with 10 mM MgCl2, TLC
Protocol: as §2
(§3) A 20 μM concentration of each of purified proteins MutT, NudG, NadR, TrmE, and MBP (as a negative control) was incubated with 100 μM ppGpp in buffer B (containing 40 mM Tris [pH 7.5], 100 mM NaCl, and 10 mM MgCl2) for 20 min at room temperature. Samples were snap-frozen on dry ice and analyzed with UPLC-MS afterward. All samples and buffers were stored at −80°C, thawed on ice, and kept at 4°C during analysis. For the analysis, a UPLC-quadrupole time of flight (UPLC-qTOF) method (Waters) was used. Analysis conditions were as follows: column, zic-HILIC (Merck Millipore) (150 by 2.1 mm, […], gradient elution, flow rate set to 0.3 ml/min); mobile phase A, 10 mM ammonium acetate (pH 5); mobile phase B, 90% acetonitrile with 10 mM ammonium acetate (pH 5). The gradient was set up as follows: min 0 to 2, 80% B; min 2 to 16, 80% B to 50% B; hold until min 20; injection volume, 4 µl. The detection conditions were as follows: photodiode array detector (PDA), […] (evaluated at 260 nm); MS, ionization; electrospray ionization (ESI+), scan, 200 to 800 m/z with lock mass correction. Analytes were identified by their accurate mass and retention time data for a known standard dissolved in used buffer (for the chemicals of the same nominal masses). These standards were either synthesized and their structures confirmed by nuclear magnetic resonance (NMR) (for ppGp, pGpp, and pGp) or purchased (ppGpp was purchased from Jena Biocsience and GTP from Sigma-Aldrich).

Apt [4] = target: T2, Apt; test: DRaCALA binding, purified Apt; parameters: species or system E. coli; conditions: up to 150 µM Apt
RNAP /DksA = system: RNAP /DksA; parameters: method as in Table S1 (14); conditions: ref Table S1 (14); cited from earlier work
NudG = target: T3, NudG (Escherichia coli, UniProt P77788); test: In vitro cleavage assay (TLC), NudG; assay type: biochemical, E. coli; conditions: purified NudG, buffer B with 10 mM MgCl2, TLC
T3 construct: expressed in transfected cells; host or cells: E. coli ASKA collection strain, IPTG-induced, whole-cell lysate
Protocol: as §2, §3

GuaB = target: GuaB; parameters: method as in ref 29, 31, 47 (Table S1 ref 5); conditions: 47 (Table S1 ref 5); cited from earlier work
DnaG [5] = conditions: ref Table S1 (12); cited from earlier work
YgdH [6] = target: T4, YgdH (Escherichia coli, UniProt P0ADR8); test: TLC of YgdH binding reactions (degradation test); assay type: biochemical, E. coli; conditions: binding reactions analyzed by TLC
YgdH [7] = target: T4, YgdH; test: DRaCALA binding and Kd determination, purified YgdH; parameters: species or system E. coli; conditions: 20 µM YgdH, binding buffer with 10 mM MgCl2, no EDTA
Protocol: For Kd measurements by DRaCALA, 2-fold serial dilutions from the highest possible concentrations of each purified protein were prepared in binding buffer B, and approximately 2 nM concentrations of α-^32P-labeled ppGpp, pppGpp, GTP, and GDP were added. The mixtures were incubated for 5 min at RT before spotting of 2 µl of the reaction mixtures onto nitrocellulose membranes. […] For competition assays, purified proteins at the specified concentrations were incubated with 2 nM [α-^32P]ppGpp or [α-^32P]pppGpp in the presence of 100 μM competitor nucleotides in binding buffer B. The reaction mixtures were incubated for 5 min at RT, 2 µl was spotted onto nitrocellulose membranes, and the values corresponding to the bound fractions were determined. EDTA was added at excess concentrations as specified for each case.

UshA = target: T5, UshA (Escherichia coli, UniProt P07024); test: Cleavage of (p)ppGpp by UshA; assay type: biochemical, E. coli
T5 sequence (P07024 26-550): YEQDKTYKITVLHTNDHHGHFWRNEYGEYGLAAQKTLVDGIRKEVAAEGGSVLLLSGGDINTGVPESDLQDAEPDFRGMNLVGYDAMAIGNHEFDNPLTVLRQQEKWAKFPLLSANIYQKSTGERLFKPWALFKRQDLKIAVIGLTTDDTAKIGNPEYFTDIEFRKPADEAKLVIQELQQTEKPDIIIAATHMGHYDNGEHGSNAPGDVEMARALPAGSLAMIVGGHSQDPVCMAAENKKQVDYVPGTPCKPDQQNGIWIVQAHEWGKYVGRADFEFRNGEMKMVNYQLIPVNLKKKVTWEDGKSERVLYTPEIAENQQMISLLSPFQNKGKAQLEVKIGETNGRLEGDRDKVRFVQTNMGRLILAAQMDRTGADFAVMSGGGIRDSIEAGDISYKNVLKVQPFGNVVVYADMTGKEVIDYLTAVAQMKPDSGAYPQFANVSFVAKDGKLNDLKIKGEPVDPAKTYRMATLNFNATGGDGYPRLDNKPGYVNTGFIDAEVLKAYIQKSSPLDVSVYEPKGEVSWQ
Source text: (§4) Supplement mbo001183765st1.docx, table 1: Table S1. List of proteins that bind or cleave (p)ppGpp. | column: Binding (Kd or otherwise stated in µM) or cleavage of (p)ppGpp in E. coli

PhoA = PhoA (Escherichia coli, UniProt P00634); test: Cleavage of (p)ppGpp by PhoA; assay type: biochemical, E. coli
Source text: as §4

DnaG [8] = system: DnaG; parameters: method as in Table S1 (13); conditions: ref Table S1 (13); read-out: IC50, B. subtilis DnaG; cited from earlier work
YybT /GdpP = conditions: other bacteria, cited from earlier work
YgdH [9] = target: T4, YgdH; test: DRaCALA competition assay, YgdH; assay type: binding, E. coli; conditions: 100 µM cold competitor; data not shown

T1 sequence (P0A7D4 whole entry): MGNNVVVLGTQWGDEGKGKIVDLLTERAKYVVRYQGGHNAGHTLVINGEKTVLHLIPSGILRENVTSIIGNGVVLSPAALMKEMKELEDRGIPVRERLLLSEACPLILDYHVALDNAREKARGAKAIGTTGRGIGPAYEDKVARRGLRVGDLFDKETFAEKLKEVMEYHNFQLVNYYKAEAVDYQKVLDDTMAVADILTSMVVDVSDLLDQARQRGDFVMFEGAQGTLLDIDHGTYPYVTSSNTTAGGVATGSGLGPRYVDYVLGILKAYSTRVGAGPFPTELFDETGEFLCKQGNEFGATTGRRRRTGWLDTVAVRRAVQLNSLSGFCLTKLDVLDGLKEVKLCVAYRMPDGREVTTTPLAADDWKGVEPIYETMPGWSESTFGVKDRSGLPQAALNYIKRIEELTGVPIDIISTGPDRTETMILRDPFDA
T4 sequence (P0ADR8 whole entry): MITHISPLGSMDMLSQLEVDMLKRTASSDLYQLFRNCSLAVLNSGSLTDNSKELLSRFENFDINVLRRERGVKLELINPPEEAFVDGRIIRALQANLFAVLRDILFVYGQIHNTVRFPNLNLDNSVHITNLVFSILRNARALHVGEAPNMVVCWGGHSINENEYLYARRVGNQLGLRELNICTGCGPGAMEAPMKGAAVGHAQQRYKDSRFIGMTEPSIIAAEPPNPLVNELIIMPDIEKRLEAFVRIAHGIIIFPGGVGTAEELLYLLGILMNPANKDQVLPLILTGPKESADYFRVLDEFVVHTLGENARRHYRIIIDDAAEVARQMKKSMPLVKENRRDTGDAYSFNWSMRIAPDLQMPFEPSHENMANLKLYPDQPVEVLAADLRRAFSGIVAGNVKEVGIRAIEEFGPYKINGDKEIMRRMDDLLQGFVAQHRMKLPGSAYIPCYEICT
Sequence of NadR (P27278 whole entry): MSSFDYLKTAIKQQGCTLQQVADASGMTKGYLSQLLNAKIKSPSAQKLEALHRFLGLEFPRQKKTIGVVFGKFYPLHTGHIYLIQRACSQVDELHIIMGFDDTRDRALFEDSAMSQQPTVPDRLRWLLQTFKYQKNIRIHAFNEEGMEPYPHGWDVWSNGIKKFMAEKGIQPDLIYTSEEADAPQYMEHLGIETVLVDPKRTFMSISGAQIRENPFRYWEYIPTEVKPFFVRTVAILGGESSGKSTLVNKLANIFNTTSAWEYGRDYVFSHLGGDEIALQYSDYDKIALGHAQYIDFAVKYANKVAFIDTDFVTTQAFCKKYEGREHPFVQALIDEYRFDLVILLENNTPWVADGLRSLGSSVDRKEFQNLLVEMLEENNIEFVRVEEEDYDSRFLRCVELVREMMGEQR
T2 sequence (P69503 whole entry): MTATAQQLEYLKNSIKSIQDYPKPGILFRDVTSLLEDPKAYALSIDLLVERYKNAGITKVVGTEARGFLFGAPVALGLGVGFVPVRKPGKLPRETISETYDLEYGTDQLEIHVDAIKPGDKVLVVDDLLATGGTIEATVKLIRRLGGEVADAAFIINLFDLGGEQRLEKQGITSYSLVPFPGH
Sequence of TrmE (P25522 whole entry): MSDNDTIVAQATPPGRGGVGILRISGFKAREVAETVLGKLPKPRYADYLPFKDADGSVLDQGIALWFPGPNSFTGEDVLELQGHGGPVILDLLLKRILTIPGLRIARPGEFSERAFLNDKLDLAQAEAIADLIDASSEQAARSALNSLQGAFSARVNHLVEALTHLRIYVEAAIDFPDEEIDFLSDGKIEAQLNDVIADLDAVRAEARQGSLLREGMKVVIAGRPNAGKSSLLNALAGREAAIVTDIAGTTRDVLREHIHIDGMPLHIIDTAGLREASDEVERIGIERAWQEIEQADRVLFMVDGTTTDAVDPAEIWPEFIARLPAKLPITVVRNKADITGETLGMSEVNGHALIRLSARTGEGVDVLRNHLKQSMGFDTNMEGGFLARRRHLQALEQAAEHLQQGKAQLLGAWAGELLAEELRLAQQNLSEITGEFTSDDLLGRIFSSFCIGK
Sequence of PhoA (P00634 22-471): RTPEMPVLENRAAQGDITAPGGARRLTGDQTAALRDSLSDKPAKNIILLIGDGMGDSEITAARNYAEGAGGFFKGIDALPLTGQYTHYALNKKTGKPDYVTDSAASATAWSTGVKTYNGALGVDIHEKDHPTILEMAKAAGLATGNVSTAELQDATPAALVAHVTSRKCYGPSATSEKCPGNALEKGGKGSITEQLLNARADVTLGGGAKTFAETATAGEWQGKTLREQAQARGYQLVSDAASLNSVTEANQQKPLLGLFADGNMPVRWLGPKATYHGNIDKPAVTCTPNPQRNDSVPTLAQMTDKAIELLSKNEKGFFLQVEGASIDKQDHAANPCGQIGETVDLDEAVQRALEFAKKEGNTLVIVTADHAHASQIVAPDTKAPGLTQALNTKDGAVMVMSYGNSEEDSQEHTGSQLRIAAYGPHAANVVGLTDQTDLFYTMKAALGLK
T3 sequence (P77788 whole entry): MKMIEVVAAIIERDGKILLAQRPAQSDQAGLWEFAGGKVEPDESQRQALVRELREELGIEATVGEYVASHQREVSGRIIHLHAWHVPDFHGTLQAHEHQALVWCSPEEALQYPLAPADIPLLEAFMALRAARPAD
Sequence of MutT (P08337 whole entry): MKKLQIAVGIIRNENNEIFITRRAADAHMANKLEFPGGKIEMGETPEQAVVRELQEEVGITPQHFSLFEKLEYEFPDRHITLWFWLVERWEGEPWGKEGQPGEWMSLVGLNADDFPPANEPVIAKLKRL
Sequence of Hpt (P0A9M2 whole entry): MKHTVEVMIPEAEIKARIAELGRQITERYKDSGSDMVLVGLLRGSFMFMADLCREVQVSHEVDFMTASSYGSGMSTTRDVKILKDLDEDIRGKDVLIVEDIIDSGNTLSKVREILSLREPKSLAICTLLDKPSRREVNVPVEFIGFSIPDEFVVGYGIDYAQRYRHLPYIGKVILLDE
Sequence of Gpt (P0A9M5 whole entry): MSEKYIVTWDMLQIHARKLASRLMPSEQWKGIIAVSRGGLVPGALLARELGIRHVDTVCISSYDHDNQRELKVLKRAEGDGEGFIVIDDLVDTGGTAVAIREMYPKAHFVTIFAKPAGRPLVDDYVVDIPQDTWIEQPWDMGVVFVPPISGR

## (p)ppGpp
Gpt
  competition for bound [α-32P]ppGpp on Gpt: partially outcompete
PurA [1]; ref Table S1 (5)
  Ki: 140 µM
PurA [1]; ref Table S1 (6)
  Ki: 50 µM
Apt [2]
  IC50: 1500 µM
NadR
  cleavage by NadR: some degradation; also recorded: Cleavage of (p)ppGpp into ppGp/pGpp
Hpt
  competition for bound [α-32P]ppGpp on Hpt: partially outcompete
PurA [3]
  binding to PurA: no specific binding; also recorded: does not significantly bind
TrmE
  cleavage by TrmE: some degradation; also recorded: Cleavage of (p)ppGpp into ppGp/pGpp
RelA
  effect on RelA activity: Synthesis of and stimulated by (p)ppGpp; (16)
MutT
  cleavage by MutT: Cleavage of (p)ppGpp into pGp
Apt [4]
  binding to Apt: no significant binding
RNAP /DksA
  IC50: 15 µM
NudG
  cleavage by NudG: Cleavage of (p)ppGpp into pGp
GuaB
  Ki: 30 to 50 µM
DnaG [5]
  IC50: 200 µM
YgdH [6]
  degradation by YgdH: not degraded
YgdH [7]
  binding to purified YgdH: not able to significantly bind
UshA
  cleavage by UshA: Non-specific cleavage of (p)ppGpp into (p)pi
PhoA
  cleavage by PhoA: Non-specific cleavage of (p)ppGpp into (p)pi
DnaG [8]
  IC50: 500 µM
YybT /GdpP; ref Table S1 (21)
  Ki: 36 µM
YybT /GdpP; ref Table S1 (22)
  Ki: 130 µM
YgdH [9]
  competition for (p)ppGpp binding to YgdH: could outcompete
